Data as given in patent US12679824B2 (Hoffmann-La Roche Inc., priority 2020, dated 2026).

These molecules were tested on Acinetobacter baumannii ATCC17961 (assay: 90% Growth Inhibitory Concentration (IC90) determination, antimicrobial susceptibility testing). Settings: Acinetobacter baumannii, ATCC17961, 16 h, Acinetobacter baumannii ATCC17961; Iso-Sensitest broth; growth by optical density at 600 nm over 16h; concentration inhibiting 90% of the growth; read-out: ATCC 17961 IC90.
Format: cell-based
Summary of the method: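 Broth microdilution in Iso-Sensitest medium, compounds twofold diluted (e.g. 50–0.097 μM final), inoculum ~5×10^(5) CFU/ml, 35±2° C. OD600 was read every 20 min over 16 h. IC90 was derived from growth inhibition during logarithmic growth.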

IC90 [nM]	SMILES
810	Cn1c(-c2cn(-c3ccc(N)cn3)nc2C(F)(F)F)cnc1C(=O)Nc1ccc(C(=O)N2CC[C@H](CNC(=O)[C@@H]3C[C@@H](O)CN3)C2)c(Cl)c1 [Example Z44, 5-[1-(5-amino-2-pyridyl)-3-(trifluoromethyl)pyrazol-4-yl]-N-[3-chloro-4-[(3R)-3-[[[(2S,4R)-4-hydroxyprolyl]amino]methyl]pyrrolidine-1-carbonyl]phenyl]-1-methyl-imidazole-2-carboxamide]
1180	Cn1c(-c2cn(-c3ccc(N)cn3)nc2C(F)(F)F)cnc1C(=O)Nc1ccc(C(=O)NCC2CC2NC(=O)[C@@H]2C[C@@H](O)CN2)c(Cl)c1 (stereo partly drawn) [Example Z36, 5-[1-(5-amino-2-pyridyl)-3-(trifluoromethyl)pyrazol-4-yl]-N-[3-chloro-4-[[2-[[(2S,4R)-4-hydroxyprolyl]amino]cyclopropyl]methylcarbamoyl]phenyl]-1-methyl-imidazole-2-carboxamide]
1110	COc1ccc(-n2cc(-c3cnc(C(=O)Nc4ccc(C(=O)N5CCN(C(=O)C6CCNCC6)CC5)c(Cl)c4)n3C)c(C(F)(F)F)n2)cn1 [Example Z75, N-[3-chloro-4-(4-isonipecotoylpiperazine-1-carbonyl)phenyl]-5-[1-(6-methoxy-3-pyridyl)-3-(trifluoromethyl)pyrazol-4-yl]-1-methyl-imidazole-2-carboxamide]
220	CNC1CCN(C(=O)c2ccc(NC(=O)c3ncc(-c4cn(-c5ccc(N)cn5)nc4C(F)(F)F)n3C)cc2Cl)CC1 [Example Z4, 5-[1-(5-amino-2-pyridyl)-3-(trifluoromethyl)pyrazol-4-yl]-N-[3-chloro-4-[4-(methylamino)piperidine-1-carbonyl]phenyl]-1-methyl-imidazole-2-carboxamide]
600	Cn1c(-c2cn(-c3cnc(N)cn3)nc2C(F)(F)F)cnc1C(=O)Nc1ccc(C(=O)N2CCN(C(=O)C3CCNCC3)CC2)c(Cl)c1 [Example Z29, 5-[1-(5-aminopyrazin-2-yl)-3-(trifluoromethyl)pyrazol-4-yl]-N-[3-chloro-4-(4-isonipecotoylpiperazine-1-carbonyl)phenyl]-1-methyl-imidazole-2-carboxamide]
390	CN(C(=O)[C@@H]1C[C@@H](O)CN1)C1CCN(C(=O)c2ccc(NC(=O)c3ncc(-c4cn(-c5ccc(N)cn5)nc4C(F)(F)F)n3C)cc2Cl)CC1 [Example Z46, 5-[1-(5-amino-2-pyridyl)-3-(trifluoromethyl)pyrazol-4-yl]-N-[3-chloro-4-[4-[[(2S,4R)-4-hydroxyprolyl]-methyl-amino]piperidine-1-carbonyl]phenyl]-1-methyl-imidazole-2-carboxamide]
1170	CC[C@@H]1CNCCN1C(=O)c1ccc(NC(=O)c2ncc(-c3cn(-c4ccc(N)cn4)nc3C(F)(F)F)n2C)cc1Cl [Example Z63, 5-[1-(5-amino-2-pyridyl)-3-(trifluoromethyl)pyrazol-4-yl]-N-[3-chloro-4-[(2R)-2-ethylpiperazine-1-carbonyl]phenyl]-1-methyl-imidazole-2-carboxamide]
1180	Cn1c(-c2cn(-c3ccc(N)cn3)nc2C(F)(F)F)cnc1C(=O)Nc1ccc(C(=O)NC2CN(C(=O)[C@@H]3C[C@@H](O)CN3)CC2CO)c(Cl)c1 (stereo partly drawn) [Example Z27, 5-[1-(5-amino-2-pyridyl)-3-(trifluoromethyl)pyrazol-4-yl]-N-[3-chloro-4-[[1-[(2S,4R)-4-hydroxyprolyl]-4-methylol-pyrrolidin-3-yl]carbamoyl]phenyl]-1-methyl-imidazole-2-carboxamide]
750	Cn1c(-c2cn(-c3cnc(N)c(F)c3)nc2C(F)(F)F)cnc1C(=O)Nc1ccc(C(=O)N2CCN(C(=O)C3CCNCC3)CC2)c(Cl)c1 [Example Z74, 5-[1-(6-amino-5-fluoro-3-pyridyl)-3-(trifluoromethyl)pyrazol-4-yl]-N-[3-chloro-4-[4-(piperidine-4-carbonyl)piperazine-1-carbonyl]phenyl]-1-methyl-imidazole-2-carboxamide]
660	Cn1c(-c2cn(-c3ccc(N)cn3)nc2C(F)(F)F)cnc1C(=O)Nc1ccc(C(=O)N[C@H]2C[C@H](NC(=O)[C@@H]3C[C@@H](O)CN3)C2)c(Cl)c1 [Example Z38, 5-[1-(5-amino-2-pyridyl)-3-(trifluoromethyl)pyrazol-4-yl]-N-[3-chloro-4-[trans-[3-[[(2S,4R)-4-hydroxyprolyl]amino]cyclobutyl]carbamoyl]phenyl]-1-methyl-imidazole-2-carboxamide]
420	CN(C(=O)c1ccc(NC(=O)c2ncc(-c3cn(-c4ccc(N)cn4)nc3C(F)(F)F)n2C)cc1Cl)C1CCNCC1 [Example Z13, 5-[1-(5-amino-2-pyridyl)-3-(trifluoromethyl)pyrazol-4-yl]-N-[3-chloro-4-[methyl(4-piperidyl)carbamoyl]phenyl]-1-methyl-imidazole-2-carboxamide]
1310	COCC1CN(C(=O)c2ccc(NC(=O)c3ncc(-c4cn(-c5ccc(N)cn5)nc4C(F)(F)F)n3C)cc2Cl)CCN1 (stereo not drawn) [Example Z69, 5-[1-(5-amino-2-pyridyl)-3-(trifluoromethyl)pyrazol-4-yl]-N-[3-chloro-4-[3-(methoxymethyl)piperazine-1-carbonyl]phenyl]-1-methyl-imidazole-2-carboxamide]
910	Cn1c(-c2cn(-c3ccc(N)cn3)nc2C(F)(F)F)cnc1C(=O)Nc1ccc(C(=O)NC2CC(CN)(CCl)C2)c(Cl)c1 (stereo not drawn) [Example Z15, N-[4-[[3-(aminomethyl)-3-(chloromethyl)cyclobutyl]carbamoyl]-3-chloro-phenyl]-5-[1-(5-amino-2-pyridyl)-3-(trifluoromethyl)pyrazol-4-yl]-1-methyl-imidazole-2-carboxamide]
360	Cn1c(-c2cn(-c3ccc(N)cn3)nc2C(F)(F)F)cnc1C(=O)Nc1ccc(C(=O)N[C@@H]2CC[C@@H](NC(=O)[C@@H]3C[C@@H](O)CN3)C2)c(Cl)c1 [Example Z23, 5-[1-(5-amino-2-pyridyl)-3-(trifluoromethyl)pyrazol-4-yl]-N-[3-chloro-4-[[(1R,3R)-3-[[(2S,4R)-4-hydroxyprolyl]amino]cyclopentyl]carbamoyl]phenyl]-1-methyl-imidazole-2-carboxamide]

Second part, the molecule before the results:

SMILES	IC90 [nM]
Cc1[nH]ncc1-n1cc(-c2cnc(C(=O)Nc3ccc(C(=O)N4CCN(C(=O)C5CCNCC5)CC4)c(Cl)c3)n2C)c(C(F)(F)F)n1 [Example E5, N-[3-chloro-4-[4-(piperidine-4-carbonyl)piperazine-1-carbonyl]phenyl]-1-methyl-5-[1-(5-methyl-1H-pyrazol-4-yl)-3-(trifluoromethyl)pyrazol-4-yl]imidazole-2-carboxamide]	1400
Cn1c(-c2cn(-c3ccc(N)cn3)nc2C(F)(F)F)cnc1C(=O)Nc1ccc(C(=O)N2CCC(C(=O)N3CCNC(CO)C3)CC2)c(Cl)c1 (stereo not drawn) [Example H2, 5-[1-(5-amino-2-pyridyl)-3-(trifluoromethyl)pyrazol-4-yl]-N-[3-chloro-4-[4-[3-(hydroxymethyl)piperazine-1-carbonyl]piperidine-1-carbonyl]phenyl]-1-methyl-imidazole-2-carboxamide]	880
CNc1ccc(-n2cc(-c3cnc(C(=O)Nc4ccc(C(=O)N5CCN(C(=O)C6CCNCC6)CC5)c(C)c4)n3C)c(C(F)(F)F)n2)nc1 [Example D6, 1-methyl-5-[1-[5-(methylamino)-2-pyridyl]-3-(trifluoromethyl)pyrazol-4-yl]-N-[3-methyl-4-[4-(piperidine-4-carbonyl)piperazine-1-carbonyl]phenyl]imidazole-2-carboxamide]	370
Cc1ccc(-n2cc(-c3cnc(C(=O)Nc4ccc(C(=O)N5CCN(C(=O)C6CCNCC6)CC5)c(Cl)c4)n3C)c(C(F)(F)F)n2)nc1 [Example E6, N-[3-chloro-4-[4-(piperidine-4-carbonyl)piperazine-1-carbonyl]phenyl]-1-methyl-5-[1-(5-methyl-2-pyridyl)-3-(trifluoromethyl)pyrazol-4-yl]imidazole-2-carboxamide]	350

Same assay, conditions: Acinetobacter baumannii, ATCC17961, 16 h, read-out: ATCC 17961 IC90

SMILES	IC90 [nM]
Cn1c(-c2cn(-c3ccc(N)cn3)nc2C(F)(F)F)cnc1C(=O)Nc1ccc(C(=O)N2CCN(C(=O)C3CCNCC3)CC2)c(Cl)c1 [Example C1, 5-[1-(5-Amino-2-pyridyl)-3-(trifluoromethyl)pyrazol-4-yl]-N-[3-chloro-4-[4-(piperidine-4-carbonyl)piperazine-1-carbonyl]phenyl]-1-methyl-imidazole-2-carboxamide]	220
CCNc1ccc(-n2cc(-c3cnc(C(=O)Nc4ccc(C(=O)N5CCN(C(=O)C6CCNCC6)CC5)c(Cl)c4)n3C)c(C(F)(F)F)n2)nc1 [Example K1, N-[3-chloro-4-[4-(piperidine-4-carbonyl)piperazine-1-carbonyl]phenyl]-5-[1-[5-(ethylamino)-2-pyridyl]-3-(trifluoromethyl)pyrazol-4-yl]-1-methyl-imidazole-2-carboxamide]	500
Cn1c(-c2cn(-c3ccc(N)cn3)nc2C(F)(F)F)cnc1C(=O)Nc1ccc(C(=O)N2CCC(CN3CCNCC3=O)CC2)c(Cl)c1 [Example I1, 5-[1-(5-Amino-2-pyridyl)-3-(trifluoromethyl)pyrazol-4-yl]-N-[3-chloro-4-[4-[(2-oxopiperazin-1-yl)methyl]piperidine-1-carbonyl]phenyl]-1-methyl-imidazole-2-carboxamide]	1500
